Read-outs that look alike come from different tables or passages of the source.
Legend:
[1] = target: human wildtype CFTR (Homo sapiens, UniProt P13569); assay: Short-circuit current measurements, apical chloride current in FRT cells; assay type: cell-based; parameters: expressed in transfected cells; host or cells: FRT (Fisher rat thyroid) cells
Procedure: Short-circuit current measurements. FRT cells (stably expressing human wildtype CFTR) were cultured on [sequence] filters with 1 cm^2 surface area (Corning-Costar) to resistance >1,000 Ω·cm^2 as described (see, e.g., Ma et al., J. Clin. Invest. 110:1651-1658 ((2002)); Sonawane et al., FASEB J. 20:130-132 (2006)). Filters were mounted in an Easymount Chamber System (Physiologic Instruments, San Diego). For apical current measurements, the basolateral hemichamber contained (in mM): 130 NaCl, 2.7 KCl, 1.5 KH2PO4, 1 CaCl2, 0.5 MgCl2, 10 Na-HEPES, 10 glucose (pH 7.3). The basolateral membrane was permeabilized with amphotericin B (250 μg/ml) for 30 min. In the apical solution 65 mM NaCl was replaced by sodium gluconate, and CaCl2 was increased to 2 mM. Solutions were bubbled with 95% O2/5% CO2 and maintained at 37° C. Current was recorded using a DVC-1000 voltage-clamp (World Precision Instruments) using Ag/AgCl electrodes and 1 M KCl agar bridges.
CFTR was stimulated by cAMP agonist forskolin and increasing concentration of test compounds was added.

[2] = test system: MDCK cells; assay: MDCK cell apoptosis, in situ cell death detection kit; assay type: cell-based, Canine; conditions: 10 μM, 72 h
Procedure: Apoptosis was measured using the in situ cell death detection kit (ROCHE Diagnostics, Indianapolis, Ind.). MDCK cells were seeded on 8-chamber polystyrene tissue culture-treated glass slides and incubated with compounds T08 and G07 for 72 h at 5, 10 or 20 μM. The assay was performed according to manufacturer's instructions. Five microscopic fields were analyzed per condition. The apoptosis index was calculated as the percentage of nucleus-stained cells.

[3] = test system: MDCK cells; assay: MDCK cell cyst model of polycystic kidney disease; assay type: cell-based, Canine; conditions: for effect on MDCK cyst enlargement (in words): 1 μM
Source text: An MDCK cell model of polycystic kidney disease was used to screen CFTR inhibitors of the thiazolidinone and glycine hydrazide classes for reducing cyst formation and expansion. […] Culture of MDCK cells in three-dimensional collagen gels produces a polarized, single-layer, thinned epithelium surrounding a fluid-filled space, apical […] microvilli, a solitary cilium, and apical tight junctions (see, e.g., McAteer et al., Scan Elect Microsc (Pt 3): 1135-1150, 1986; McAteer et al., Scanning Microsc 2: 1739-1763, 1988; and Taide et al., Eur J Clin Invest 26: 506-513, 1996).
Type I MDCK cells (ATCC No. CCL-34) were cultured at 37° C. in a humidified 95% air/5% CO2 atmosphere in a 1:1 mixture of Dulbecco's modified Eagle's medium (DMEM) and Ham's F-12 nutrient medium supplemented with 10% fetal bovine serum (Hyclone), 100 U/mL penicillin and 100 μg/mL streptomycin. To generate cysts, four hundred MDCK cells were suspended in 0.4 ml of ice-cold Minimum Essential Medium containing 2.9 mg/mL collagen (PuRECOL, Inamed Biomaterials, Fremont Calif.), 10 mM HEPES, 27 mM NaHCO3, 100 U/mL penicillin and 100 μg/mL streptomycin (pH 7.4). The cell suspension was plated onto 24-well plates. After gelation, 1.5 mL of MDCK cell medium containing 10 μM forskolin was added to each well and plates were maintained at 37° C. in a 5% CO2 humidified atmosphere.
The compound structures together with their approximate CFTR inhibition potencies (expressed as IC50 values) are provided in FIGS. 3 and 4. Indicated IC50 values for T01-07, T10, T12-14 were reported by Ma et al. (J Clin Invest 110: 1651-1658 (2002)). IC50 values for T08, T11, and T16 were determined by short-circuit analysis performed according to methods described herein. Indicated IC50 values for G01-05, G8-16 were reported by Sonawane et al. (FASEB J. 20: 130-132 (2006); Sonawane et al., Gastroenterology 132:1234-44 (2007)). IC50 values for G06 and G07 were determined by short-circuit current analysis performed according to methods described herein.
Medium containing forskolin and test compounds was changed every 12 h. At day 6, cysts (with diameters >50 μm) and non-cyst cell colonies were counted by phase-contrast light microscopy at 20× magnification (546 nm monochromatic illumination) using a Nikon TE 2000-S inverted microscope. In some experiments, compounds were added to medium in the continued presence of forskolin from day 4 after seeding and the medium containing forskolin and compounds was changed every 12 h for 8 days. Micrographs showing the same cysts in collagen gels (identified by markings on plates) were obtained every 2 days. For determination of cyst growth, cyst diameters were measured using Image J software. At least 10 cysts/well and 3 wells/group were measured for each condition.

[4] = test system: Pkd1^flox/−; Ksp-Cre mice; assay: Pkd1flox/-;Ksp-Cre mouse model of autosomal dominant polycystic kidney disease; assay type: in vivo; conditions: for kidney weight in Pkd1flox/-;Ksp-Cre mice (in words): 3 days treatment, vs vehicle-treated; for total numbers of cysts (of >50 μm diameter) per kidney: H&E sections, control 797±69; for total numbers of cysts (of >50 μm diameter) per kidney / serum creatinine and urea (in words): Pkd1flox/-;Ksp-Cre mice; for serum creatinine and urea (in words): vs vehicle control, age 5 and 9 days
Source text: An in vivo model of kidney disease was employed to further explore the ability of CFTR inhibitors to reduce cyst formation in a vascular, perfused cellular environment. Pkd1^flox/−; Ksp-Cre mice were employed for this model, since these kidney-selective Pkd1 knockout mice manifest a fulminant course, with development of large cysts and renal failure in first 2 weeks of life, and represent a postnatal model of ADPKD. Pkd1 knockout mice normally die within 20 days. The Pkd1^flox/−; Ksp-Cre model is suitable, inter alia, for evaluating the efficacy of CFTR inhibitors on retarding the growth of cysts in the distal segments of the nephron, including medullary thick ascending limbs of the loops of Henle, distal convoluted tubule and collecting ducts.
Pkd1^flox mice and Ksp-Cre transgenic mice in a C57BL/6 background were generated as described (see, e.g., Shibazaki et al., J Am Soc Nephrol 13: 10-11, 2004; and Shao et al., J Am Soc Nephrol 13: 1837-1846, 2002). Ksp-Cre mice express Cre recombinase under the control of the Ksp-cadherin promoter (Shao et al.). Kidney-specific Pdk1 knock-out mice (Pkd1^flox/−; Ksp-Cre mice) were generated by cross-breeding Pkd1^flox/flox mice with Pkd1^+/−:Ksp-Cre mice. Neonatal mice (age 1 day) were genotyped by genomic PCR.
CFTR inhibitors (5-10 mg/kg/day) or saline DMSO vehicle control (0.05 mL/injection) were administrated by subcutaneous injection on the backs of neonatal mice four times a day for 3 or 7 days using a 1 cc insulin syringe, beginning at age 2 days (11 mice per group). Pkd1^flox/+; Ksp-Cre or Pkd1^flox/+ mice from the same litter were used as controls. During the treatment period, control and Pkd1^flox/−; Ksp-Cre mice, with or without CFTR inhibitor treatment, were indistinguishable in their activity and behavior. Body weight was measured at day 5 (3 days after treatment), at which time there was no difference in body weight in any of the mouse groups. Blood and urine samples were collected for measurements of CFTR inhibitor concentration and renal function. Kidneys were removed and weighed, and fixed for histological examination or homogenized for determination of CFTR inhibitor content.
To measure serum creatinine and urea (indicators of renal function), serum was obtained from whole blood by centrifugation at 5000×g for 5 min. Serum creatinine concentration was measured using a colorimetric assay kit (Cayman Chemical, Ann Arbor Mich.) following manufacturer's instructions. Urea concentration was measured using the colorimetric QUANTICHROM Urea Assay Kit (BioAssay Systems, Hayward, Calif.). Creatinine and urea concentrations were determined from optical densities using calibration standards.
For histological examination, kidneys were fixed with Bouin's fixative and embedded in paraffin. Three-μm thick sections were cut serially every 200 μm and stained with hematoxylin and eosin (H&E). Sections were imaged using a LEICA inverted epifluorescence microscope (DM 4000B) equipped with 2.5× objective lens and color CCD camera (Spot, model RT KE; Diagnostic Instruments Inc.). Cyst sizes in micrographs of kidney were determined using MATLAB 7.0 software.

[5] = values in text, forskolin-stimulated CFTR, read-out: IC50 (short-circuit current)

Chain of human wildtype CFTR (P13569 whole entry): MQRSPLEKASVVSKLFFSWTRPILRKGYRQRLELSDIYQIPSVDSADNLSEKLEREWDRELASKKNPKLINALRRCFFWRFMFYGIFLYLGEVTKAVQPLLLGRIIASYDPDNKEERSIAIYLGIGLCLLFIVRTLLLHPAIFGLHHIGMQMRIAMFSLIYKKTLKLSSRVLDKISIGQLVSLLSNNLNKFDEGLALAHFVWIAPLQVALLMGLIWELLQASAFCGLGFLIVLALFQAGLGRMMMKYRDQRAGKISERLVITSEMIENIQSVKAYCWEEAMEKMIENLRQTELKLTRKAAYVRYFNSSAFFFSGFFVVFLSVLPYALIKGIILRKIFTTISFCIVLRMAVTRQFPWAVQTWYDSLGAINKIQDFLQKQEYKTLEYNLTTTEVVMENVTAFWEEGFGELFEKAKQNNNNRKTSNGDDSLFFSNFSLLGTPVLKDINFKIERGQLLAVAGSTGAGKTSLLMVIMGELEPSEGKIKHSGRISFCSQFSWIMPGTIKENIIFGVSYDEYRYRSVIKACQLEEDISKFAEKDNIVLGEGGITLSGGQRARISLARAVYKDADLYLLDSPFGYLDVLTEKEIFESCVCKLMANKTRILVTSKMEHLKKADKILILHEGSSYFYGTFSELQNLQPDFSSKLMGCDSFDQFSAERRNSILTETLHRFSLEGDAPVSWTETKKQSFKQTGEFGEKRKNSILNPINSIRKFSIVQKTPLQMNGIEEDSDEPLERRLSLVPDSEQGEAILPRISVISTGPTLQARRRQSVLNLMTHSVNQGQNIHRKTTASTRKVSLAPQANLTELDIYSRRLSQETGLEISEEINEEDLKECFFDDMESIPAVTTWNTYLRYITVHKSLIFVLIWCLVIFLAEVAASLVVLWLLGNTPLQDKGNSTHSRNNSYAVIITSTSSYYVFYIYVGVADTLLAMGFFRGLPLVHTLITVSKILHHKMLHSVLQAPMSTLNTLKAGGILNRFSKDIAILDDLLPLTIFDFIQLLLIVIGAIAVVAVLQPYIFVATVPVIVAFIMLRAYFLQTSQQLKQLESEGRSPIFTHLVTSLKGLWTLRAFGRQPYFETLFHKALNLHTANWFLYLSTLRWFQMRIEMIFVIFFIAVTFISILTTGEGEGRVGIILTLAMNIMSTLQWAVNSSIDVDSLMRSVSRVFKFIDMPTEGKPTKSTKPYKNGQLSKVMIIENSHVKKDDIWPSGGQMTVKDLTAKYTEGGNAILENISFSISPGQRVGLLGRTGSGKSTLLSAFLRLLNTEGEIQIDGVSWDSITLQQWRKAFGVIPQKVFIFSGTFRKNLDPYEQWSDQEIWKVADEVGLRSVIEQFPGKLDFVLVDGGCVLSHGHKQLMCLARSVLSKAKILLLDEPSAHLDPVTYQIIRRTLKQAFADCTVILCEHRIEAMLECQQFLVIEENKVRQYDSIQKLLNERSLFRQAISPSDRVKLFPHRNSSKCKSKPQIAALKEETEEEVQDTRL

Row | Compound | IC50 [1, 5] [nM] | MDCK cell apoptosis (in words) [2] | effect on MDCK cyst enlargement (in words) [3] | effect on MDCK cyst enlargement/formation (in words) ([3]; 10 μM) | inhibition at 10 µM ([3]; Canis lupus familiaris, MDCK, 10 μM, forskolin 10 μM, cyst diameter, read-out: inhibition of cyst growth) [%] | IC50 ([1]; Table 3, inhibition potency, read-out: IC50) [nM] | inhibition kinetics (in words) ([1]; compared with CFTRinh-172 or Oxo-172, listed as Tetrazolo-172) | inhibition of CFTR in short-circuit current analysis (in words) ([1]; increasing concentration, forskolin-stimulated) | kidney weight in Pkd1flox/-;Ksp-Cre mice (in words) [4] | total numbers of cysts (of >50 μm diameter) per kidney [4] | serum creatinine and urea (in words) [4]
1 | O=C1/C(=C/c2ccc(-c3nn[nH]n3)cc2)SC(=S)N1c1cccc(C(F)(F)F)c1 [Compound 6, (Z)-5-(4-(1H-tetrazol-5-yl)benzylidene)-2-thioxo-3-(3-(trifluoromethyl)phenyl)thiazolidin-4-one] | 500 to 1000 | did not cause MDCK cell apoptosis | – | – | – | – | – | – | – | – | –
2 | O=C1/C(=C/c2ccc(-c3nnn[nH]3)cc2)SC(=S)N1c1cccc(C(F)(F)F)c1 [Compound 6, (Z)-5-(4-(1H-tetrazol-5-yl)benzylidene)-2-thioxo-3-(3-(trifluoromethyl)phenyl)thiazolidin-4-one] | 800 | – | strongly inhibited cyst enlargement | slowed cyst enlargement | > 70 | 760 ± 200 | slower inhibition kinetics | dose dependant inhibition | reduced kidney weight significantly | 457±32 | significantly reduced
3 | N-2-naphthalenyl-2-hydroxyethyl-[(3,5-dibromo-2,4-dihydroxyphenyl)methylene]phenylglycinehydrazide [Compound G07] | – | did not cause MDCK cell apoptosis | strongly inhibited cyst enlargement | – | – | – | – | – | reduced kidney weight significantly | 316±45 | significantly reduced
